Measurements taken from patent publication US3969418A, “(4-Biphenylyl)-butenols” (Boehringer Ingelheim GmbH, priority 1972, dated 1976).

Columns and labels:
[1] = system: Kaolin-induced edema of the hind paw of the rat; assay: Kaolin-induced edema of the hind paw of the rat (antiexudative effect); assay type: in vivo, rat (male FW 49); conditions: per os, 30 min before edema, measured 5 h after, dose for 35% reduction of swelling, by graphical extrapolation
Procedure: (§1) The compounds were tested with respect to their antiexudative effect on the kaolin-induced edema and the carrageenin-induced edema of the hind paw of the rat and with respect to their acute toxicity after oral administration to rats, in comparison with phenylbutazone, a compound with known antiphlogistic activities.
(§2) a. Kaolin-induced edema of the hind paw of the rat
(§3) The kaolin edema was induced according to the method given by Hillebrecht [Arzneimittel-Forsch. 4, 607 (1954)] by subplantary injection of 0.05 ml of a 10% suspension of kaolin in a 0.85% sodium chloride solution. Measurement of the volume of the paws was effected using the technique of Doepfner and Cerletti [Int. Arch. Allergy Immunol. 12, 89 (1958)].
(§4) Male FW 49 rats having an average weight of 120 to 150 gm were fed with the test compounds 30 minutes before inducing the edema by means of an oesophageal tube. 5 hours after the provocation of the edema the averaged values of the swelling caused in the rats treated with the test compounds were compared with values measured on control animals. By graphical extrapolation, the dose leading to a 35% reduction of the swelling (ED35) was calculated from the presentage reduction values measured by the administration of different doses.

[2] = system: Carrageenin-induced edema of the hind paw of the rat; assay: Carrageenin-induced edema of the hind paw of the rat (antiexudative effect); assay type: in vivo, rat (male FW 49); conditions: per os, 60 min before edema, measured 3 h after, dose for 35% reduction of swelling
Procedure: as §1, §4
(§5) b. Carrageenin-induced edema of the hind paw of the rat
The provocation of the carrageenin edema was effected according to the method of Winter et al [Proc. Soc. exp. Biol. Med. 111, 544 (1962)] by subplantary injection of 0.05 ml of a 1% solution of carrageenin in a 0.85% solution of sodium chloride. The test compounds were administered 60 minutes before the provocation of the edema.
For the calculation of the reductive effect on the edema the values measured 3 hours after the provocation of the edema were used. All the other details were the same as described above in the case of the kaolin-induced edema.

[3] = system: kaolin-induced edema and carrageenin-induced edema of the hind paw of the rat; assay: Antiphlogistic (antiexudative) activity, kaolin and carrageenin edema together; assay type: in vivo, rat (male FW 49); conditions: average value from kaolin edema and carrageenin edema, per os
Procedure: The above pharmacodynamic activity of the compounds of the present invention, namely their antiphlogistic activity and their toxicity, were ascertained in the manner described below.
as §1, §2, §3, §4, §5
The provocation of the carrageenin edema was effected according to the method of Winter et al [Proc. Soc. exp. […]
For the calculation of the reductive effect on the edema the values measured 3 hours after the provocation of the edema were used. […]
(§6) The therapeutical index (a measure for the therapeutic usefulness) was calculated as the quotient of the oral LD50 and of the ED35 value calculated from the anti-exudative effect (average value from the kaolin-edema and the carrageenin-edema).

in vivo = conditions: rat; for LD50 at 336 h: in vivo, po
Excerpt: The substances were fed as a trituration in Tylose.
The calculation of the LD50 values was effected, as far as possible according to the method of Litchfield and Wilcoxon, based on the percentage of animals which died within 14 days after administration of the different doses.

[4] = Therapeutic index (LD50/ED35); conditions: in vivo; oral LD50 / average ED35, rat; read-out: Therapeutical Index, ratio between toxic and antiexudative activity LD50/ED35
Procedure: as §6

Row | SMILES | ED35 [1] | ED35 [2] | ED35 [3] | animals died after application (in vivo; 2000 mgm/kg per os) | LD50 at 336 h (in vivo) | selectivity ratio [4]
1 | CCCCC1C(=O)N(c2ccccc2)N(c2ccccc2)C1=O [Phenylbutazone, phenylbutazone, reference compound] | 58 mg/kg | 69 mg/kg | 63.5 mg/kg | – | – | –
2 | OCCC=Cc1ccc(-c2ccccc2)cc1 [B, 4-(4'-biphenylyl)-3-buten-1-ol] | 42 mg/kg | 50 mg/kg | 46 mg/kg | 0 out of 10 animals died | > 2000 mg/kg | > 43.5
3 | OCCC=Cc1ccc(-c2ccccc2F)cc1 [A, 4-(2"-fluoro-4'-biphenylyl)-3-buten-1-ol] | 44 mg/kg | 19 mg/kg | 31.5 mg/kg | – | 1770 mg/kg | 56.2
